This note sets out measurements from PMC10269487, “Plasmodium Parasite Malate-Quinone Oxidoreductase Functionally Complements a Yeast Deletion Mutant of Mitochondrial Malate Dehydrogenase” (Microbiology Spectrum, 2023).

Assay [1] concerns the target T1, malate-quinone oxidoreductase (PfMQO) (Plasmodium falciparum, UniProt C6KT09).
T1 construct: gene PF3D7_0616800; native full-length PfMQO from codon-optimized cDNA, expressed in ΔMdh1 yeast mitochondria
T1 sequence (C6KT09 1-521): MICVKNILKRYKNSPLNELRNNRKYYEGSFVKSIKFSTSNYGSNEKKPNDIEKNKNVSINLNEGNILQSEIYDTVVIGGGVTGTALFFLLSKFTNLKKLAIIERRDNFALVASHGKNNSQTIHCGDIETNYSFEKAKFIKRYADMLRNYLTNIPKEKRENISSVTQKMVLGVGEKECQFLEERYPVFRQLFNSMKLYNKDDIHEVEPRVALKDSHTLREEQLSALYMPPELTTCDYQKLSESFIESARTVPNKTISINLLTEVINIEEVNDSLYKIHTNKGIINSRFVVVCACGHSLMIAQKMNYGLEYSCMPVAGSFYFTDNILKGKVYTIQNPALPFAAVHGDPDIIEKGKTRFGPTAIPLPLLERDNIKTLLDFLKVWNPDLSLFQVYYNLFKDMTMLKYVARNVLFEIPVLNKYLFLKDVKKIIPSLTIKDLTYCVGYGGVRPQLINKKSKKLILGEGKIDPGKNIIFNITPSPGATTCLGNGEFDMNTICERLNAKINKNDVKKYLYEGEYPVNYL
Description: malate:dUQ/DCIP reductase activity in mitochondrial fraction of PfMQO-expressing yeast, with ΔMdh1 as negative control. Type of assay: biochemical.

Assay [2] concerns the target T2, yeast succinate dehydrogenase (Saccharomyces cerevisiae, UniProt P21801+P33421+P37298+Q00711).
T2 construct: gene SDH1
Description: inhibition of yeast succinate dehydrogenase activity (Fig. S2). Type of assay: cell-based.

The IC50 is the concentration that gives 50% inhibition. Low values mean inhibition by little substance, high ones a need for much substance.

T2 sequence (Q00711 29-640): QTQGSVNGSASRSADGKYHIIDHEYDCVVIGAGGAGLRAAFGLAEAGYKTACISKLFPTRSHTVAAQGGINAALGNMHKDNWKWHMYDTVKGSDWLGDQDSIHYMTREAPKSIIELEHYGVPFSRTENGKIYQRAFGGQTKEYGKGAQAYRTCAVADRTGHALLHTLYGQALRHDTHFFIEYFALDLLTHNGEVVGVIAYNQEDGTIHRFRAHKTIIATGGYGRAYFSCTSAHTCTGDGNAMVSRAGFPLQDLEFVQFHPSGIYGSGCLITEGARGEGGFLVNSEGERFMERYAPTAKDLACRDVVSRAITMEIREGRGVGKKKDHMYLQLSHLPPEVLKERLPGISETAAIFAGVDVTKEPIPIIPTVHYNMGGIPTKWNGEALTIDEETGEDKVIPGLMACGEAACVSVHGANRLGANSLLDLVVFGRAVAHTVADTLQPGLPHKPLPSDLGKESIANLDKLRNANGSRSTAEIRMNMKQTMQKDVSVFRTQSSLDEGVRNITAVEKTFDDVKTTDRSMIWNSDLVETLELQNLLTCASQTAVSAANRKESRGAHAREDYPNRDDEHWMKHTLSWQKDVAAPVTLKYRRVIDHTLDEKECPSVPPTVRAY
T2 sequence (P21801 21-266): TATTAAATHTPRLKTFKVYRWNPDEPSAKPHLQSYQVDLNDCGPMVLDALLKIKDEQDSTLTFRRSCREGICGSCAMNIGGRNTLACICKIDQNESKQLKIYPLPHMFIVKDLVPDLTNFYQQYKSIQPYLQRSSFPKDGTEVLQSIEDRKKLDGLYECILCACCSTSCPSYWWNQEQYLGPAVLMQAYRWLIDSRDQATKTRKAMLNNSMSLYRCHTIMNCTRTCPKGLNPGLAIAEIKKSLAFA
T2 sequence (P33421 51-198): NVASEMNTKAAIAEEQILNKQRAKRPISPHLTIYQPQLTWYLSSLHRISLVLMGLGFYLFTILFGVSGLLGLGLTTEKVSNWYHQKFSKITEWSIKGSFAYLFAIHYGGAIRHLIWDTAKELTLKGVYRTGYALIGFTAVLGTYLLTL
T2 sequence (P37298 32-181): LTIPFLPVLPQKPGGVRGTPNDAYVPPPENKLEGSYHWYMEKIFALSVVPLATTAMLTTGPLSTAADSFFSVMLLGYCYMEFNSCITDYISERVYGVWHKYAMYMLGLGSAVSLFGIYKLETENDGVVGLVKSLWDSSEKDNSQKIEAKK

For the compound `CC(C)=CCC/C(C)=C/CC/C(C)=C/Cc1c(O)c2ccccc2oc1=O` [ferulenol], the “malate:dUQ/DCIP reductase activity in mitochondrial fraction of PfMQO-expressing” value in assay [1] is recorded as “almost completely suppressed by 1”. For the same compound, the half-maximal inhibitory concentration (IC50) in assay [2] is approximately 100 nM.
